This note sets out measurements from patent US8350062B2, “Synthesis and anticancer activity of new actin-targeting small-molecule agents” (priority 2009, dated 2013).

Assay in all cases: NCI 60 cell line single dose screen
Holding throughout (assay type): cell-based, human

Assay [1] concerns HCT-116. Conditions: HCT-116 (Colon Cancer), 10 micromolar, 48 h. The method, boiled down:
(§1)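 Tumor cells in RPMI 1640 containing 5% fetal bovine serum receive the compound at 10 uM and incubate for 48 h. Growth is measured by SRB protein staining and expressed as percent of control, corrected for cell mass at drug addition.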

In assay [2] the test system is NCI-H522. To be noted: NCI-H522 (Non-Small Cell Lung Cancer), 10 micromolar, 48 h. The method, boiled down: as §1
Assay [3] deals with SK-MEL-28. To be noted: SK-MEL-28 (Melanoma), 10 micromolar, 48 h. The method, boiled down:
as §1

In assay [4] the test system is UACC-62. Conditions: UACC-62 (Melanoma), 10 micromolar, 48 h. The method, boiled down:
as §1

`COCCC(=O)NC[C@H](O)[C@H](C)C(=O)NCCC[C@H]1O[C@@]2(CCC[C@@H](CC[C@H](C)/C=C(\C)[C@H](C)O)O2)CCC1C` (stereo partly shown) [Analog 10]: the “Growth Percent” value in assay [1] came out at 55.84%; in assay [2] it was 32.60%; in assay [3], 71.16%; in assay [4], 48.46%.
